Tests used:
Assay in all cases: radiometric in vitro kinase assay, autoradiography
Format in all cases: biochemical
[1] = target: T1, His-M3K∂6 (Arabidopsis thaliana, UniProt Q9C9U5); settings: autophosphorylation and histone phosphorylation; 200 µM ATP plus [γ-32P]ATP, labelled compound; 10 mM MgCl2; pH 7.5; room temperature
T1 construct: gene SIS8; 6 x His tag, expressed in E. coli BL21 (DE3); plasmid from Takahashi et al. 2020
T1 sequence (Q9C9U5 1-1030): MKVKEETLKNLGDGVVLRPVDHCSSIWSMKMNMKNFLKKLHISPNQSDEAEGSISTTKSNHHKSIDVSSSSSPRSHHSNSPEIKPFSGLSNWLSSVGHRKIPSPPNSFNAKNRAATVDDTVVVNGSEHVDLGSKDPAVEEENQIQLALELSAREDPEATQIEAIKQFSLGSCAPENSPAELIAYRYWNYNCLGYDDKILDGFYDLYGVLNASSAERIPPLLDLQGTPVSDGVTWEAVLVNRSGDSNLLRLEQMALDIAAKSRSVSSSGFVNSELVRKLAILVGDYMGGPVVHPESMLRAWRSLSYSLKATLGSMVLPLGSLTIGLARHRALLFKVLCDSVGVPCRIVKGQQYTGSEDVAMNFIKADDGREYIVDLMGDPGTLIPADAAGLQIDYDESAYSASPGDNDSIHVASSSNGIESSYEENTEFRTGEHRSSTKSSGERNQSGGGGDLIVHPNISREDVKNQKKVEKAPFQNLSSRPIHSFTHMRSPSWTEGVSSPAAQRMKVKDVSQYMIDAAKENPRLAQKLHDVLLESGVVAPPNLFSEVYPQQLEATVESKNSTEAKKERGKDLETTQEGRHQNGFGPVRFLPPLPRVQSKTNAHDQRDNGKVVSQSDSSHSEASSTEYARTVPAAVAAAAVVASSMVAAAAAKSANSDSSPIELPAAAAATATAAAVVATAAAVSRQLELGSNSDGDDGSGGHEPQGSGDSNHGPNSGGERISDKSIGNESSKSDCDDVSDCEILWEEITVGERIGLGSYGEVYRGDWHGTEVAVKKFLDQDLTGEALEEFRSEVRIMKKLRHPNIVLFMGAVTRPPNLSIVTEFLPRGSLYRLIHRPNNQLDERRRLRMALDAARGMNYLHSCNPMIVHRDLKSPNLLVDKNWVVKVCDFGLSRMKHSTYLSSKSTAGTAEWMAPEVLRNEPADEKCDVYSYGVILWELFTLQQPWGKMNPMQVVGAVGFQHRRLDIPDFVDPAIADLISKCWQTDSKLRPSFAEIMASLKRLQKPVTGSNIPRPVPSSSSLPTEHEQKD

[2] = target: T2, His-OST1 (Arabidopsis thaliana, UniProt Q940H6); settings: 200 µM ATP plus [γ-32P]ATP, 10 mM MgCl2, pH 7.5, room temperature
T2 construct: gene SRK2E; 6 x His tag, expressed in E. coli BL21 (DE3); plasmid from Takahashi et al. 2020
T2 sequence (Q940H6 1-362): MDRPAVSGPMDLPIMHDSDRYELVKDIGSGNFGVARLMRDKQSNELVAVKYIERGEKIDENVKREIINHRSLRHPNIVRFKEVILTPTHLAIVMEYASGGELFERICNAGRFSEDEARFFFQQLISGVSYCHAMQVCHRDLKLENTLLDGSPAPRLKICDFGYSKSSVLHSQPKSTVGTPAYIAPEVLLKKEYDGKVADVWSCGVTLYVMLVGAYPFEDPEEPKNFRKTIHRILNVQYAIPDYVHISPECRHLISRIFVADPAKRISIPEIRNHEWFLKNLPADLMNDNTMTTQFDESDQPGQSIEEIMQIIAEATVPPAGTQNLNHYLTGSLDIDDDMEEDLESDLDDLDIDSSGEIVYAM

[3] = target: T3, His-Raf12 (Arabidopsis thaliana, UniProt F4JMR7); settings: autophosphorylation and histone phosphorylation; 200 µM ATP plus [γ-32P]ATP, labelled compound; 10 mM MgCl2; pH 7.5; room temperature
T3 construct: gene At4g23050; 6 x His tag, pET30a(+), expressed in E. coli BL21 (DE3); insert from cDNA of ABA-treated Col-0 leaf epidermis
T3 sequence (F4JMR7 1-735): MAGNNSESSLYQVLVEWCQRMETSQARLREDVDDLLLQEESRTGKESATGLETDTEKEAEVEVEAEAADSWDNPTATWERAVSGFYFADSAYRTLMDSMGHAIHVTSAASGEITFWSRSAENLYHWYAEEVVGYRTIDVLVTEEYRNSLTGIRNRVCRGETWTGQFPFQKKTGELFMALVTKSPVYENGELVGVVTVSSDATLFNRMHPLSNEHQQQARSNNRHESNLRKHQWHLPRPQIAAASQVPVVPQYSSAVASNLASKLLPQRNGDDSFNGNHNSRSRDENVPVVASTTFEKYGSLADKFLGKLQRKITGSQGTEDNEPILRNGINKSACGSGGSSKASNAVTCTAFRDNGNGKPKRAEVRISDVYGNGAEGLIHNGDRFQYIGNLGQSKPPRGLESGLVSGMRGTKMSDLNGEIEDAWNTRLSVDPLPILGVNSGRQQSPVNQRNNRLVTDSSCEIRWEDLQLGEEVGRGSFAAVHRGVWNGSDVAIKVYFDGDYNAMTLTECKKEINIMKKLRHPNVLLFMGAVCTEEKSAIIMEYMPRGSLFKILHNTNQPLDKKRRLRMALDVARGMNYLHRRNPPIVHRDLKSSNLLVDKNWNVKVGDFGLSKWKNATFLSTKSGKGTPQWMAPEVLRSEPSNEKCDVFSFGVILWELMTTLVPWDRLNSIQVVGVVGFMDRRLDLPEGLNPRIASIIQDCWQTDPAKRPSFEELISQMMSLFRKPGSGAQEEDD

Q: How did the “radiometric in vitro kinase assay, autoradiography” value (shortened to “radiometric in vitro kinase assay”) [1] turn out when `Nc1ncnc2c1ncn2[C@@H]1O[C@H](COP(=O)(O)OP(=O)(O)OP(=O)(O)O)[C@@H](O)[C@H]1O` [ATP] was run?
A: we conducted protein phosphorylation assays using Raf-like kinases in both of these clades

Q: And the “radiometric in vitro kinase assay” value ([2]; autophosphorylation and histone phosphorylation, labelled compound)?
A: His-OST1 autophosphorylated and phosphorylated histone proteins as a substrate

Q: What about the “radiometric in vitro kinase assay” value [3] of the same compound?
A: the kinase activity of Raf12, a B2 clade Raf-like kinase, was not inhibited by PP242

Q: With `COC(=O)[C@@]1(O)C[C@H]2O[C@]1(C)n1c3ccccc3c3c4c(c5c6ccccc6n2c5c31)C(=O)NC4` [K252a] as the compound, how does the “radiometric in vitro kinase assay” value ([2]; 100 µM K252a, 20 min preincubation, histone substrate) read?
A: Kinase activity of His-OST1 was partially decreased by K252a, a potent kinase inhibitor
